The text below walks through data of patent US20260125382A1, “COMPOUNDS FOR INHIBITING OR DEGRADING CDK2 AND/OR CDK9 AND MEDICINAL USE THEREOF” (KOREA RESEARCH INSTITUTE OF CHEMICAL TECHNOLOGY, priority 2022, published 2026).

One assay addresses T1, CDK2 (Homo sapiens, UniProt P24941).
T1 construct: endogenous in cells; host or cells: MDA-MB-231
Nature of the assay: CDK protein degradation activity (Western blotting), CDK2. Type of assay: cell-based. The settings on record: MDA-MB-231 cells, 16 hours, Western blot. Summed up:
(§1)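 CDK2 and CDK9 protein levels measured by Western blot with densitometry, using tubulin as loading reference. Cells were MDA-MB-231, exposed for 16 h to 100 nM, 1 μM or 10 μM compound or to DMSO.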
In general terms: In western blotting, separated proteins are transferred to a membrane and probed.

In a further assay the target is T2, CDK9 (Homo sapiens, UniProt P50750).
T2 construct: endogenous in cells; host or cells: MDA-MB-231
As to the kind of experiment: CDK protein degradation activity (Western blotting), CDK9. Type of assay: cell-based. As to conditions: MDA-MB-231 cells, 16 hours, Western blot. Summed up:
as §1

T2 sequence (P50750 whole entry): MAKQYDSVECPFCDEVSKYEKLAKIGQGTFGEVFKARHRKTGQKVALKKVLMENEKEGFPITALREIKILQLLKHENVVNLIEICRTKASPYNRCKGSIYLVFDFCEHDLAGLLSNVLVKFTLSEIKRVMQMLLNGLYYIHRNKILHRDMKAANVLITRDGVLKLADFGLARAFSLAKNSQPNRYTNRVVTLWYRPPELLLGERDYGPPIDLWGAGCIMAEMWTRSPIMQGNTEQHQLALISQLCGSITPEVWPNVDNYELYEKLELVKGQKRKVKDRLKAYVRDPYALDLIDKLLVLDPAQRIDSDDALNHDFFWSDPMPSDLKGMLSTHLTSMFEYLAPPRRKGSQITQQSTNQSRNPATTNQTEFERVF

With `Cc1cccc(C(=O)N[C@H]2C[C@@H](n3cnc4c(NCCC5CCN(CC6CCN(C(=O)COc7ccc8c(c7)C(=O)N([C@H]7CCC(=O)NC7=O)C8=O)CC6)CC5)ncnc43)C2)n1` [Compound 124, N-((1s,3s)-3-(6-((2-(1-((1-(2-((2-(2,6-dioxopiperidin-3-yl)-1,3-dioxoisoindolin-5-yl)oxy)acetyl)piperidin-4-yl)methyl)piperidin-4-yl)ethyl)amino)-9H-purin-9-yl)cyclobutyl)-6-methylpicolinamide], at CDK2, the “Enzyme degradation CDK2 (% remaining) @ 0.1 μM” value is recorded as 40%, the “Enzyme degradation CDK2 (% remaining) @ 1 μM” value worked out at 20% and the “Enzyme degradation CDK2 (% remaining) @ 10 μM” value is 10%. Besides, at CDK9, the “Enzyme degradation CDK9 (% remaining) @ 0.1 μM” value is reported as 0/0/0%, the “Enzyme degradation CDK9 (% remaining) @ 1 μM” value is 0/0/0% and the “Enzyme degradation CDK9 (% remaining) @ 10 μM” value is on record as 0/0/0%.

In the case of `O=C1CC[C@H](N2C(=O)c3ccc(N4CCC(CN5CCC(CNc6ncnc7c6ncn7C6CC(NC(=O)Cc7ccccc7)C6)CC5)CC4)cc3C2=O)C(=O)N1` (stereo partly drawn) [Compound 181, N-((1s,3s)-3-(6-(((1-((1-(2-(2,6-dioxopiperidin-3-yl)-1,3-dioxoisoindolin-5-yl)piperidin-4-yl)methyl)piperidin-4-yl)methyl)amino)-9H-purin-9-yl)cyclobutyl)-2-phenylacetamide], at CDK2, the “Enzyme degradation CDK2 (% remaining) @ 0.1 μM” value amounted to 40%, the “Enzyme degradation CDK2 (% remaining) @ 1 μM” value is 30% and the “Enzyme degradation CDK2 (% remaining) @ 10 μM” value worked out at 50%. On CDK9, the “Enzyme degradation CDK9 (% remaining) @ 0.1 μM” value was 50%, the “Enzyme degradation CDK9 (% remaining) @ 1 μM” value is 40% and the “Enzyme degradation CDK9 (% remaining) @ 10 μM” value came to 0%.

As for `O=C1CC[C@@H](c2ccc(OCC(=O)N3CCC(CCN4CCN(c5ccc(Nc6ncnc7c6ncn7[C@H]6C[C@@H](NC(=O)c7cccc(C(F)(F)F)n7)C6)cc5)CC4)CC3)cc2)C(=O)N1` [Compound 438, N-((1s,3s)-3-(6-((4-(4-(2-(1-(2-(4-(2,6-dioxopiperidin-3-yl)phenoxy)acetyl)piperidin-4-yl)ethyl)piperazin-1-yl)phenyl)amino)-9H-purin-9-yl)cyclobutyl)-6-(trifluoromethyl)picolinamide], at CDK2, the “Enzyme degradation CDK2 (% remaining) @ 0.1 μM” value is on record as 40%, the “Enzyme degradation CDK2 (% remaining) @ 1 μM” value worked out at 50% and the “Enzyme degradation CDK2 (% remaining) @ 10 μM” value worked out at 50%. Moreover, at CDK9, the “Enzyme degradation CDK9 (% remaining) @ 0.1 μM” value is 10/10/10%, the “Enzyme degradation CDK9 (% remaining) @ 1 μM” value is on record as 10/10/10% and the “Enzyme degradation CDK9 (% remaining) @ 10 μM” value is 10/10/10%.

On to `N#Cc1cccc(C(=O)N[C@H]2C[C@@H](n3cnc4c(Nc5ccc(N6CCN(CC7CCN(c8ccc9c(c8)CN(C8CCC(=O)NC8=O)C9=O)CC7)CC6)cc5)ncnc43)C2)n1` (stereo partly drawn) [Compound 441, 6-cyano-N-((1s,3s)-3-(6-((4-(4-((1-(2-(2,6-dioxopiperidin-3-yl)-1-oxoisoindolin-5-yl)piperidin-4-yl)methyl)piperazin-1-yl)phenyl)amino)-9H-purin-9-yl)cyclobutyl)picolinamide], for which, on CDK2, the “Enzyme degradation CDK2 (% remaining) @ 0.1 μM” value amounted to 30%, the “Enzyme degradation CDK2 (% remaining) @ 1 μM” value is given as 30% and the “Enzyme degradation CDK2 (% remaining) @ 10 μM” value worked out at 40%. On CDK9, the “Enzyme degradation CDK9 (% remaining) @ 0.1 μM” value is 10/10/10%, the “Enzyme degradation CDK9 (% remaining) @ 1 μM” value is 10/10/10% and the “Enzyme degradation CDK9 (% remaining) @ 10 μM” value is on record as 10/10/10%.

For the compound `O=C1CC[C@H](n2nnc3ccc(N4CCC(CN5CCC(CCNc6ncnc7c6ncn7C6CC(NC(=O)Cc7ccccc7)C6)CC5)CC4)cc3c2=O)C(=O)N1` (stereo partly drawn) [Compound 410, N-((1s,3s)-3-(6-((2-(1-((1-(3-(2,6-dioxopiperidin-3-yl)-4-oxo-3,4-dihydrobenzo[d][1,2,3]triazin-6-yl)piperidin-4-yl)methyl)piperidin-4-yl)ethyl)amino)-9H-purin-9-yl)cyclobutyl)-2-phenylacetamide], at CDK2, the “Enzyme degradation CDK2 (% remaining) @ 0.1 μM” value came out at 30%, the “Enzyme degradation CDK2 (% remaining) @ 1 μM” value was determined as 20% and the “Enzyme degradation CDK2 (% remaining) @ 10 μM” value stood at 20%. Also, on CDK9, the “Enzyme degradation CDK9 (% remaining) @ 0.1 μM” value worked out at 30%, the “Enzyme degradation CDK9 (% remaining) @ 1 μM” value is 20% and the “Enzyme degradation CDK9 (% remaining) @ 10 μM” value is listed as 20%.

Consider `Cc1cccc(C(=O)NC2CC(n3cnc4c(NCCC5CCN(CC6CCN(C(=O)C7CN(c8ccc9c(c8)C(=O)N([C@H]8CCC(=O)NC8=O)C9=O)C7)CC6)CC5)ncnc43)C2)n1` (stereo partly drawn) [Compound 309, N-((1s,3s)-3-(6-((2-(1-((1-(1-(2-(2,6-dioxopiperidin-3-yl)-1,3-dioxoisoindolin-5-yl)azetidin-3-carbonyl)piperidin-4-yl)methyl)piperidin-4-yl)ethyl)amino)-9H-purin-9-yl)cyclobutyl)-6-methylpicolinamide], for which, at CDK2, the “Enzyme degradation CDK2 (% remaining) @ 0.1 μM” value worked out at 90%, the “Enzyme degradation CDK2 (% remaining) @ 1 μM” value was 80% and the “Enzyme degradation CDK2 (% remaining) @ 10 μM” value is 100%. For the same compound, at CDK9, the “Enzyme degradation CDK9 (% remaining) @ 0.1 μM” value is reported as 0/0/0%, the “Enzyme degradation CDK9 (% remaining) @ 1 μM” value is recorded as 0/0/0% and the “Enzyme degradation CDK9 (% remaining) @ 10 μM” value was 0/0/0%.

For `O=C1CC[C@H](N2C(=O)c3cc(F)c(N4CCC(CCN5CCN(c6ccc(Nc7ncnc8c7ncn8C7CC(NC(=O)Cc8ccccc8)C7)cc6)CC5)CC4)cc3C2=O)C(=O)N1` (stereo partly drawn) [Compound 323, N-((1s,3s)-3-(6-((4-(4-(2-(1-(2-(2,6-dioxopiperidin-3-yl)-6-fluoro-1,3-dioxoisoindolin-5-yl)piperidin-4-yl)ethyl)piperazin-1-yl)phenyl)amino)-9H-purin-9-yl)cyclobutyl)-2-phenylacetamide], at CDK2, the “Enzyme degradation CDK2 (% remaining) @ 0.1 μM” value is recorded as 60%, the “Enzyme degradation CDK2 (% remaining) @ 1 μM” value stood at 50% and the “Enzyme degradation CDK2 (% remaining) @ 10 μM” value is 40%. Further, on CDK9, the “Enzyme degradation CDK9 (% remaining) @ 0.1 μM” value is recorded as 0/0/0%, the “Enzyme degradation CDK9 (% remaining) @ 1 μM” value was 0/0/0% and the “Enzyme degradation CDK9 (% remaining) @ 10 μM” value is listed as 0/0/0%.

Consider `O=C1CCC(N2C(=O)c3cccc(NCC(=O)N4CC(N5CCC6(CC5)CC(N5CCN(c7ccc(Nc8ncnc9c8ncn9[C@H]8C[C@@H](NC(=O)Cc9ccccc9)C8)cc7)CC5)C6)C4)c3C2=O)C(=O)N1` (stereo partly drawn) [Compound 277, N-((1s,3s)-3-(6-((4-(4-(7-(1-((2-(2,6-dioxopiperidin-3-yl)-1,3-dioxoisoindolin-4-yl)glycyl)azetidin-3-yl)-7-azaspiro[3.5]nonan-2-yl)piperazin-1-yl)phenyl)amino)-9H-purin-9-yl)cyclobutyl)-2-phenylacetamide], for which, on CDK2, the “Enzyme degradation CDK2 (% remaining) @ 0.1 μM” value is listed as 30/30/30%, the “Enzyme degradation CDK2 (% remaining) @ 1 μM” value is 30/30/30% and the “Enzyme degradation CDK2 (% remaining) @ 10 μM” value is 30/30/30%. Besides, on CDK9, the “Enzyme degradation CDK9 (% remaining) @ 0.1 μM” value was 0/0/0%, the “Enzyme degradation CDK9 (% remaining) @ 1 μM” value is listed as 0/0/0% and the “Enzyme degradation CDK9 (% remaining) @ 10 μM” value was 0/0/0%.

Take `O=C1CC[C@H](N2C(=O)c3ccc(NCC(=O)N4CCC5(CC4)CC(N4CCN(c6ccc(Nc7ncnc8c7ncn8C7CC(NC(=O)c8c(Cl)cccc8Cl)C7)cc6)CC4)C5)cc3C2=O)C(=O)N1` (stereo partly drawn) [Compound 318, 2,6-dichloro-N-((1s,3s)-3-(6-((4-(4-(7-((2-(2,6-dioxopiperidin-3-yl)-1,3-dioxoisoindolin-5-yl)glycyl)-7-azaspiro[3.5]nonan-2-yl)piperazin-1-yl)phenyl)amino)-9H-purin-9-yl)cyclobutyl)benzamide]: on CDK2, the “Enzyme degradation CDK2 (% remaining) @ 0.1 μM” value is 20%, the “Enzyme degradation CDK2 (% remaining) @ 1 μM” value is recorded as 20% and the “Enzyme degradation CDK2 (% remaining) @ 10 μM” value worked out at 40%. On CDK9, the “Enzyme degradation CDK9 (% remaining) @ 0.1 μM” value is given as 0/0/0%, the “Enzyme degradation CDK9 (% remaining) @ 1 μM” value is 0/0/0% and the “Enzyme degradation CDK9 (% remaining) @ 10 μM” value was 0/0/0%.

As for `O=C1CCC(N2C(=O)c3ccc(N4CCC(C(=O)N5CC(N6CCN(c7ccc(Nc8ncnc9c8ncn9[C@H]8C[C@@H](NC(=O)Cc9ccccc9)C8)cc7)CC6)C5)CC4)cc3C2=O)C(=O)N1` (stereo partly drawn) [Compound 350, N-((1s,3s)-3-(6-((4-(4-(1-(1-(2-(2,6-dioxopiperidin-3-yl)-1,3-dioxoisoindolin-5-yl)piperidin-4-carbonyl)azetidin-3-yl)piperazin-1-yl)phenyl)amino)-9H-purin-9-yl)cyclobutyl)-2-phenylacetamide], at CDK2, the “Enzyme degradation CDK2 (% remaining) @ 0.1 μM” value was 30/30/30%, the “Enzyme degradation CDK2 (% remaining) @ 1 μM” value is on record as 30/30/30% and the “Enzyme degradation CDK2 (% remaining) @ 10 μM” value was 30/30/30%. Moreover, at CDK9, the “Enzyme degradation CDK9 (% remaining) @ 0.1 μM” value came out at 50%, the “Enzyme degradation CDK9 (% remaining) @ 1 μM” value is reported as 30% and the “Enzyme degradation CDK9 (% remaining) @ 10 μM” value is reported as 30%.

With `Cc1cccc(C(=O)NC2CC(n3cnc4c(NCCCN5CCN(C(=O)CNc6cccc7c6C(=O)N([C@@H]6CCC(=O)NC6=O)C7=O)CC5)ncnc43)C2)n1` (stereo partly drawn) [Compound 139, N-((1r,3r)-3-(6-((3-(4-((2-(2,6-dioxopiperidin-3-yl)-1,3-dioxoisoindolin-4-yl)glycyl)piperazin-1-yl)propyl)amino)-9H-purin-9-yl)cyclobutyl)-6-methylpicolinamide], at CDK2, the “Enzyme degradation CDK2 (% remaining) @ 0.1 μM” value is given as 80%, the “Enzyme degradation CDK2 (% remaining) @ 1 μM” value was 90% and the “Enzyme degradation CDK2 (% remaining) @ 10 μM” value is reported as 80%. On CDK9, the “Enzyme degradation CDK9 (% remaining) @ 0.1 μM” value amounted to 80%, the “Enzyme degradation CDK9 (% remaining) @ 1 μM” value worked out at 90% and the “Enzyme degradation CDK9 (% remaining) @ 10 μM” value was 70%.
